Assays:
[1] = molecular target: T1, A disintegrin and metalloproteinase with thrombospondin motifs 4 (Homo sapiens, UniProt O75173); assay: Inhibition of human ADAMTS-4 using VQTVTWPDMELPLPRNITEGEARGSVILTVKPIFEVSPSPLKG peptide substrate by AlphaScreen assay
T1 sequence (O75173 whole entry): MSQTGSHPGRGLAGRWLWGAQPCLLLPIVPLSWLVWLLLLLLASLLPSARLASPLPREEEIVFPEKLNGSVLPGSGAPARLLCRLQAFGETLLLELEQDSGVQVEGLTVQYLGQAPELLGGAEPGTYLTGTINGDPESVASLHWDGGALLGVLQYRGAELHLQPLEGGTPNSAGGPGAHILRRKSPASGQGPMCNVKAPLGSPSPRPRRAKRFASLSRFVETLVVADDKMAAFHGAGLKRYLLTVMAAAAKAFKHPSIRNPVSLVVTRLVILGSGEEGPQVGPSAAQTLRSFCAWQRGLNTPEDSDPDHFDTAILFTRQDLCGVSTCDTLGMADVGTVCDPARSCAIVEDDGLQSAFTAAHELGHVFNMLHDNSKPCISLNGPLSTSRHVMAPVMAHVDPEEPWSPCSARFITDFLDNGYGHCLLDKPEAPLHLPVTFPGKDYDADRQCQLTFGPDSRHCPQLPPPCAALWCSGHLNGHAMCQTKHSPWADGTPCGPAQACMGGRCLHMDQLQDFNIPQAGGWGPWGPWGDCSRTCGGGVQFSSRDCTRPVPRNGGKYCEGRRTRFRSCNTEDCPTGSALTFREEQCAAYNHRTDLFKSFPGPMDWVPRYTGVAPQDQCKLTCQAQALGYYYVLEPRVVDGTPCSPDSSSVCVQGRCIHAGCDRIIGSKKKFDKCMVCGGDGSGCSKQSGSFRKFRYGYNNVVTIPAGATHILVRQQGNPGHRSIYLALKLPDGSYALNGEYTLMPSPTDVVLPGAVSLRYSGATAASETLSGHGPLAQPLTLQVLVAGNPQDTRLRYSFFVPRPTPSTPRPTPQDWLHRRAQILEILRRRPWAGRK

[2] = molecular target: T2, A disintegrin and metalloproteinase with thrombospondin motifs 5 (Homo sapiens, UniProt Q9UNA0); assay: Inhibition of human ADAMTS-5 using VQTVTWPDMELPLPRNITEGEARGSVILTVKPIFEVSPSPLKG peptide substrate by AlphaScreen assay
T2 sequence (Q9UNA0 whole entry): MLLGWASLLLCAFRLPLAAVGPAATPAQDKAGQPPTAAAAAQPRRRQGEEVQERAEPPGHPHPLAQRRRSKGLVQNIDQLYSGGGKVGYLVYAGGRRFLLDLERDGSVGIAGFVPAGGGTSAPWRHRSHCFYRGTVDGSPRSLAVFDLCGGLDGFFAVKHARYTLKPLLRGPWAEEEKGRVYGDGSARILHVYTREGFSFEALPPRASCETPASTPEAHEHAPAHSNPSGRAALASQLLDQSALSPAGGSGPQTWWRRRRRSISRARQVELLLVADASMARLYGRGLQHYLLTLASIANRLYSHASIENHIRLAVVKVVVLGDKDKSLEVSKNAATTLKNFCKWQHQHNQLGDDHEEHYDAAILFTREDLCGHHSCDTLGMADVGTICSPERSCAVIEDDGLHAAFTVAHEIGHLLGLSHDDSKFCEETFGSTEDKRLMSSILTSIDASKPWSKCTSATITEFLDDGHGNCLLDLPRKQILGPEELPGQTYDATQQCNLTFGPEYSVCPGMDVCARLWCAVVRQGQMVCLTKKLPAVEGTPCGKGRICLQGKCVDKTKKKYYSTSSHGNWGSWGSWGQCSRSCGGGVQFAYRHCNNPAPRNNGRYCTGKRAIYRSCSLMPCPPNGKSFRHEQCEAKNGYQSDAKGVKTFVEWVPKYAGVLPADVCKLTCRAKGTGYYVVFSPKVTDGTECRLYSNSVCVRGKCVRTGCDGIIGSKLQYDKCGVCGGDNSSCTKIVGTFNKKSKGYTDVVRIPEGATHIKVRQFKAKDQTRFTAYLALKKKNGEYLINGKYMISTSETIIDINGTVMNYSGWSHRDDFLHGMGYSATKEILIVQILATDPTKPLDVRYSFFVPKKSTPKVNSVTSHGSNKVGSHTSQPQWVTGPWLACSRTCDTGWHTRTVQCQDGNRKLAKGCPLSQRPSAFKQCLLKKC

[3] = molecular target: T2, A disintegrin and metalloproteinase with thrombospondin motifs 5; assay: Inhibition of human ADAMTS-5 using VQTVTWPDMELPLPRNITEGEARGSVILTVKPIFEVSPSPLKG peptide substrate by AlphaScreen assay in presence of 50% rat plasma
[4] = molecular target: 72 kDa type IV collagenase (Homo sapiens, UniProt P08253); assay: Inhibition of human MMP2 using Mca-PQG1 peptide substrate assessed as substrate cleavage after 2 to 4 hrs
72 kDa type IV collagenase, sequence (P08253 whole entry): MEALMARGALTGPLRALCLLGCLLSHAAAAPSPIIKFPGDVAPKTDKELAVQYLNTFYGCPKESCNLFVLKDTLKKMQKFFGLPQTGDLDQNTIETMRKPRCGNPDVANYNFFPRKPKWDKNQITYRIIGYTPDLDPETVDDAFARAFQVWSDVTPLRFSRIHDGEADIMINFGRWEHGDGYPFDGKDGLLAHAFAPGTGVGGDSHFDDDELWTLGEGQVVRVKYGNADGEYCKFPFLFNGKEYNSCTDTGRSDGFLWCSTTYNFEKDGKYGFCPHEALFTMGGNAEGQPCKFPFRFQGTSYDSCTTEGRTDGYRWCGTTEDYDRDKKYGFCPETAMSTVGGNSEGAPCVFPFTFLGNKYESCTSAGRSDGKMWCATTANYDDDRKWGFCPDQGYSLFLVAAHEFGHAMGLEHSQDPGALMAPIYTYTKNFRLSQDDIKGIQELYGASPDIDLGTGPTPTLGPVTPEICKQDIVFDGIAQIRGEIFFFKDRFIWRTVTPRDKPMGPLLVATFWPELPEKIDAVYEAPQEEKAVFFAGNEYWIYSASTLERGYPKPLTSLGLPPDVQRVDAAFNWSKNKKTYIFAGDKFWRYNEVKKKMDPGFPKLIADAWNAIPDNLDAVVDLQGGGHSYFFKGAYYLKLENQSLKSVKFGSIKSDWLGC

Stromelysin-1 = Stromelysin-1 (Homo sapiens, UniProt P08254); assay: Inhibition of human MMP3 using Mca-PQG1 peptide substrate assessed as substrate cleavage after 2 to 4 hrs
Stromelysin-1, sequence (P08254 whole entry): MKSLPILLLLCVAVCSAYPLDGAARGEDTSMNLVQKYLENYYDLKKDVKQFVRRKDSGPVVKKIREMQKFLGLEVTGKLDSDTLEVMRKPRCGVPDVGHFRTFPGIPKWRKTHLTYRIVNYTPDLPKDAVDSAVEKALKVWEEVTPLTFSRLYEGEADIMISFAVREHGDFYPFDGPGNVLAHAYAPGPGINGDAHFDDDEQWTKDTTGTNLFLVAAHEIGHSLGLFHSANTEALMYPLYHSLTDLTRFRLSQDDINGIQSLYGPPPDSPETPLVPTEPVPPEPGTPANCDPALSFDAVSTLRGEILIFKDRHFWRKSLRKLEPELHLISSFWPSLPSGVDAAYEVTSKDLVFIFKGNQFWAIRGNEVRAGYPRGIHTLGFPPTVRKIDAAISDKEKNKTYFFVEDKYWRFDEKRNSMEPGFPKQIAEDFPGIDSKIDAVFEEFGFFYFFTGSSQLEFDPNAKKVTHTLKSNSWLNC

Collagenase 3 = Collagenase 3 (Homo sapiens, UniProt P45452); assay: Inhibition of human MMP13 using Mca-PQG1 peptide substrate assessed as substrate cleavage after 2 to 4 hrs
[5] = molecular target: Matrix metalloproteinase-14 (Homo sapiens, UniProt P50281); assay: Inhibition of human MMP14 using Mca-PQG1 peptide substrate assessed as substrate cleavage after 2 to 4 hrs
[6] = molecular target: Disintegrin and metalloproteinase domain-containing protein 17 (Homo sapiens, UniProt P78536); assay: Inhibition of human TACE using Mca-PQG1 peptide substrate assessed as substrate cleavage after 2 to 4 hrs
Disintegrin and metalloproteinase domain-containing protein 17, sequence (P78536 whole entry, the tested form may be a part): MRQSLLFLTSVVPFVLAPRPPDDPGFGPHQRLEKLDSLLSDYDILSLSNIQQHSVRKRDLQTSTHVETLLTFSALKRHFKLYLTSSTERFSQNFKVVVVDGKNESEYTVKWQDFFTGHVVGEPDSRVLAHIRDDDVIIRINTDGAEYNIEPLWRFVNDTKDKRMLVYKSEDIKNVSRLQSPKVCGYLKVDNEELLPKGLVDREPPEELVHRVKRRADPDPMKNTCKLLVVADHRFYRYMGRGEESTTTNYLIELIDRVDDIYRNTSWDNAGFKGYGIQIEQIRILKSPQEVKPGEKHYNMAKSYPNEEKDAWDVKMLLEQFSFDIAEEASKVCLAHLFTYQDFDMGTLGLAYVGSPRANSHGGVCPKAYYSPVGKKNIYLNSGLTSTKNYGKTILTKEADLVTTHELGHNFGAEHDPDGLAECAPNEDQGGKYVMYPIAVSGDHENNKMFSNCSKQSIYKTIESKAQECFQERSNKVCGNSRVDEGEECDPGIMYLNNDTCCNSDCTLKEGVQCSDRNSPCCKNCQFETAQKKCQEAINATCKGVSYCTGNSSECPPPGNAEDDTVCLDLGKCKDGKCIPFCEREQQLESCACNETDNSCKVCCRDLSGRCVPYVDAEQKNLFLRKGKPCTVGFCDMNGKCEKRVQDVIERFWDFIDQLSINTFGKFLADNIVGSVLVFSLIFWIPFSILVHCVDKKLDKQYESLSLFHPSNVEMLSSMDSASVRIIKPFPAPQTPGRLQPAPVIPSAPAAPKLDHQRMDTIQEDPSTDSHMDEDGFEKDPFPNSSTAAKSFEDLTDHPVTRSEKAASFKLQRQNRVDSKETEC

[7] = Plasma concentration in rat at 10 mg/kg, po after 2 hrs; assay type: ADME, organism-based; design: dose 10 mg/kg, route oral
[8] = Plasma concentration in rat at 10 mg/kg, po after 8 hrs; assay type: ADME, organism-based; design: dose 10 mg/kg, route oral
[9] = AUC in Sprague-Dawley rat at 10 mg/kg, po; assay type: ADME, organism-based; design: dose 10 mg/kg, route oral; conditions: plasma
[10] = Cmax in Sprague-Dawley rat at 10 mg/kg, po; assay type: ADME, organism-based; design: dose 10 mg/kg, route oral; conditions: in vivo
[11] = Tmax in Sprague-Dawley rat at 10 mg/kg, po; assay type: ADME, organism-based; design: dose 10 mg/kg, route oral; conditions: in vivo
[12] = Half life in Sprague-Dawley rat at 10 mg/kg, po; assay type: ADME, organism-based; design: dose 10 mg/kg, route oral; conditions: in vivo
[13] = Clearance in Sprague-Dawley rat; assay type: ADME, organism-based; conditions: in vivo
[14] = Oral bioavailability in Sprague-Dawley rat; assay type: ADME, organism-based; conditions: in vivo
[15] = Metabolic stability in human liver microsomes assessed as compound degradation after 30 mins by LC-MS analysis; assay type: ADME, Microsome; conditions: read-out: Drug degradation
[16] = Metabolic stability in rat liver microsomes assessed as compound degradation after 30 mins by LC-MS analysis; assay type: ADME, Microsome; conditions: read-out: Drug degradation
Rattus norvegicus [17] = assay: Reduction in ADAMTS-4/ADAMTS-5-mediated aggrecan cleavage products in po dosed Lewis rat MIA model assessed as aggrecanase-cleaved fragments treatment starting from day 3 and single dose given on day 7 followed by animal sacrificed 4 hrs later by NITEGE sandwich ELISA assay; assay type: functional
Rattus norvegicus [18] = species on record: Rattus norvegicus; assay: Reduction in meniscal tear-induced osteoarthritis total joint score in chronic BID Lewis rat surgical model; assay type: functional, organism-based
Cytochrome P450 2D6 = Cytochrome P450 2D6 (Homo sapiens, UniProt P10635); assay: Inhibition of human CYP2D6; assay type: ADME
Cytochrome P450 2D6, sequence (P10635 whole entry): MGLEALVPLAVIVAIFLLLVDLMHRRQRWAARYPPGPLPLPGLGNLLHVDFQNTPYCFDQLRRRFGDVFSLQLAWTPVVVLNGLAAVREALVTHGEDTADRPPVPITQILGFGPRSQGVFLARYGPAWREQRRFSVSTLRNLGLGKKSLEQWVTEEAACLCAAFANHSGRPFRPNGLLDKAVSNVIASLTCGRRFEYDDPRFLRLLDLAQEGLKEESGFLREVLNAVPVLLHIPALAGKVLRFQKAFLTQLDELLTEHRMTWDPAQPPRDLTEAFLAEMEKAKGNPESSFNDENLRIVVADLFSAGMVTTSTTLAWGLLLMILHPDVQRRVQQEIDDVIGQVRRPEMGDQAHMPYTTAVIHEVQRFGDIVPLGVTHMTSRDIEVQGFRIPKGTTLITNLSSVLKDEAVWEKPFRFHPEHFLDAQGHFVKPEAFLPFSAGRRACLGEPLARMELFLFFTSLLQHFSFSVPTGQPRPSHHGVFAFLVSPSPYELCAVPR

Cytochrome P450 2C9 = Cytochrome P450 2C9 (Homo sapiens, UniProt P11712); assay: Inhibition of human CYP2C9; assay type: ADME
Cytochrome P450 2C9, sequence (P11712 whole entry): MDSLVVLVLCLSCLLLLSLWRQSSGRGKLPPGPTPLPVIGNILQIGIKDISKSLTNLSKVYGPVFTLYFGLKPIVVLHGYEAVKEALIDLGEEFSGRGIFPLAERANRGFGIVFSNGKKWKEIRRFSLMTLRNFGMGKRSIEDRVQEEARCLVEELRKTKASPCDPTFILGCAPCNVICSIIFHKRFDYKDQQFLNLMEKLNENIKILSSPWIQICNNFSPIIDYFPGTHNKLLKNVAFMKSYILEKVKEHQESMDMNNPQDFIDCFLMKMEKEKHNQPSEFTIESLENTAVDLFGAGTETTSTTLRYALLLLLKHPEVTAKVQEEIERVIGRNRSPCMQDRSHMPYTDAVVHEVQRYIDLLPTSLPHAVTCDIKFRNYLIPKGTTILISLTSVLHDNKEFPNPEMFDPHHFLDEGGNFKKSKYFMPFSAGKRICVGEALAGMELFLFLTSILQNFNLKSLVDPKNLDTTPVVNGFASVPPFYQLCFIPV

Cytochrome P450 3A4 = Cytochrome P450 3A4 (Homo sapiens, UniProt P08684); assay: Inhibition of human CYP3A4; assay type: ADME
Cytochrome P450 3A4, sequence (P08684 whole entry): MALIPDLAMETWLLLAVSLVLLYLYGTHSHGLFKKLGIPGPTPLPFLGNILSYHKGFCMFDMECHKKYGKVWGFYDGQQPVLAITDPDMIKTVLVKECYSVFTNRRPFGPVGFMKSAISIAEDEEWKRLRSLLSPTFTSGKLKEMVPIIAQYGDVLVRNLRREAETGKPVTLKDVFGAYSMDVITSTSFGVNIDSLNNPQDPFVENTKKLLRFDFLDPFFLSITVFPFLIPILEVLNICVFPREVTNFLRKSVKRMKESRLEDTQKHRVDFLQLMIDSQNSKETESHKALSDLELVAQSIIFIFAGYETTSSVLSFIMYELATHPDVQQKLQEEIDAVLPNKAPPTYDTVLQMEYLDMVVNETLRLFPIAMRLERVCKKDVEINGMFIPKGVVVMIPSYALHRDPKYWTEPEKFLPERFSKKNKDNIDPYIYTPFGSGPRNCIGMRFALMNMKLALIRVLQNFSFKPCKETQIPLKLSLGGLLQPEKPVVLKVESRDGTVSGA

`C[C@@]1(O)CCCN(S(=O)(=O)c2ccc(OCc3ccc(F)cc3Cl)cc2)[C@H]1C(=O)NO` showed an IC50 [1] of 1 nM, an IC50 [2] of 1 nM and an IC50 [3] of 18 nM. For the same compound, the IC50 [4] was 5 nM, the IC50 (Stromelysin-1) was 3 nM and the IC50 (Collagenase 3) was 1 nM. It also gave an IC50 [5] of 150 nM, an IC50 [6] of 7 nM and a concentration at 2 h [7] of 1900 ng/mL. For the same compound, the concentration at 8 h [8] was 840 ng/mL.
With `Cc1cccnc1[C@]1(CNC(=O)c2cc3cc(Cl)ccc3o2)NC(=O)NC1=O` (racemic) the IC50 [1] was 17 nM, the IC50 [2] was 19 nM and the IC50 [3] was 1700 nM. It also gave an IC50 [4] of 6100 nM, an IC50 (Stromelysin-1) of 20000 nM and an IC50 (Collagenase 3) of 3100 nM. For the same compound, the IC50 [5] was 18000 nM.
Work on `C[C@]1(CNC(=O)c2cc3cc(Cl)ccc3o2)NC(=O)NC1=O` (racemic) yielded an IC50 [1] of 110 nM, an IC50 [2] of 150 nM and an IC50 [3] of 2400 nM.
`Cn1nccc1[C@]1(CNC(=O)c2cc3cc(Cl)ccc3o2)NC(=O)NC1=O` gave an IC50 [1] of 22 nM, an IC50 [2] of 19 nM and an IC50 [3] of 530 nM. The IC50 [4] was 7100 nM, the IC50 (Stromelysin-1) was 64000 nM and the IC50 (Collagenase 3) was 4700 nM. For the same compound, the IC50 [5] was 8600 nM.
With `O=C1NC(=O)[C@](CNC(=O)c2cc3cc(Cl)ccc3o2)(c2ccccc2)N1` the IC50 [1] was 12 nM, the IC50 [2] was 22 nM and the IC50 [3] was 420 nM. For the same compound, the IC50 [4] was 2100 nM, the IC50 (Stromelysin-1) was 3000 nM and the IC50 (Collagenase 3) was 720 nM. The IC50 [5] was 3500 nM, the IC50 [6] was 5400 nM and the concentration at 2 h [7] was < 200 ng/mL.
`O=C1NC(=O)[C@](CNC(=O)c2cc3cc(Cl)ccc3o2)(c2nccs2)N1` showed a concentration at 2 h [7] of 4300 ng/mL, a concentration at 8 h [8] of 1300 ng/mL and an AUC [9] of 28000 ng·h/mL. It also gave a Cmax [10] of 6900 ng/mL, a Tmax [11] of 0.33 h and a half-life [12] of 3.2 h. It also gave a clearance [13] of 4 mL/min/kg, a bioavailability [14] of 72% and a metabolised at 0.5 h [15] of 16%. For the same compound, the metabolised at 0.5 h [16] was 16%.
`C[C@]1(CNC(=O)COc2ccc(Cl)cc2)NC(=O)NC1=O` showed an IC50 [1] of 74 nM, an IC50 [2] of 350 nM and an IC50 [3] of 620 nM. For the same compound, the IC50 [4] was 24000 nM, the IC50 (Stromelysin-1) was 50000 nM and the IC50 (Collagenase 3) was 7000 nM. For the same compound, the IC50 [5] was > 50000 nM, the concentration at 2 h [7] was 430 ng/mL and the concentration at 8 h [8] was 50 ng/mL.
For `Cn1ccnc1[C@]1(CNC(=O)c2cc3cc(C(F)(F)F)ccc3o2)NC(=O)NC1=O`, the IC50 [1] was 4 nM, the IC50 [2] was 4 nM and the IC50 [3] was 35 nM. It also gave an IC50 [4] of 11000 nM, an IC50 (Stromelysin-1) of 69000 nM and an IC50 (Collagenase 3) of 30000 nM. For the same compound, the IC50 [5] was 86000 nM, the IC50 [6] was 10000 nM and the concentration at 2 h [7] was 1100 ng/mL. The concentration at 8 h [8] was 90 ng/mL, the ED50 (Rattus norvegicus [17]) was 30 mg/kg and the inhibition (Rattus norvegicus [18]) was “Dose-dependent effect”. It also gave an AUC [9] of 8500 ng·h/mL, a Cmax [10] of 3200 ng/mL and a Tmax [11] of 1.6 h. For the same compound, the half-life [12] was 4.3 h, the clearance [13] was 4.8 mL/min/kg and the bioavailability [14] was 25%. The “inhibition (INH)” value (Cytochrome P450 2D6) was < 5%, the “inhibition (INH)” value (Cytochrome P450 2C9) was < 5% and the “inhibition (INH)” value (Cytochrome P450 3A4) was < 5%. The metabolised at 0.5 h [15] was < 5% and the metabolised at 0.5 h [16] was 7%.
For `Cn1ccnc1[C@]1(CNC(=O)c2cc3cc(Cl)ccc3o2)NC(=O)NC1=O`, the IC50 [1] was 5 nM, the IC50 [2] was 9 nM and the IC50 [3] was 110 nM. For the same compound, the IC50 [4] was 7500 nM, the IC50 (Stromelysin-1) was 38000 nM and the IC50 (Collagenase 3) was 4200 nM. For the same compound, the IC50 [5] was > 100000 nM, the concentration at 2 h [7] was 2200 ng/mL and the concentration at 8 h [8] was 80 ng/mL. The ED50 (Rattus norvegicus [17]) was 75 mg/kg, the AUC [9] was 8100 ng·h/mL and the Cmax [10] was 4100 ng/mL. For the same compound, the Tmax [11] was 0.33 h, the half-life [12] was 4.2 h and the clearance [13] was 13 mL/min/kg. For the same compound, the bioavailability [14] was 58%, the “inhibition (INH)” value (Cytochrome P450 2D6) was < 5% and the “inhibition (INH)” value (Cytochrome P450 2C9) was < 5%. For the same compound, the “inhibition (INH)” value (Cytochrome P450 3A4) was < 5%, the metabolised at 0.5 h [15] was 17% and the metabolised at 0.5 h [16] was 13%.

Source: ChEMBL document CHEMBL3351955, “Identification of potent and selective hydantoin inhibitors of aggrecanase-1 and aggrecanase-2 that are efficacious in both chemical and surgical models of osteoarthritis” (J Med Chem, 2014)
